20 compounds from patent US20250205344A1, “2,4-DIOXOTETRAHYDROPYRIMIDINYL DERATIVES AS DEGRONS IN PROTACS” (GLAXOSMITHKLINE INTELLECTUAL PROPERTY DEVELOPMENT LIMITED, priority 2022, published 2025) can be followed below.

Where a name gives a salt, the structure may show the parent alone.

The test concerns the target T1, Androgen Receptor (Homo sapiens, UniProt P10275, T878A).
T1 construct: the AR gene was modified, using CRISPR/Cas9 editing, so the expressed AR protein included an 11 amino acid HiBiT tag; endogenous in cells; host or cells: clonal LnCaP-derived line, AR gene edited by CRISPR/Cas9
Briefly: Androgen Receptor Degradation Assay (Nano-Glo HiBiT). As to conditions: LNCaP, 18 h, HiBiT-tagged AR in human LnCaP cells, read-out: mean asymptote max. The format is cell-based. The method in brief:
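LnCaP cells with CRISPR-knocked-in N-terminal HiBiT-tagged AR (10,000/well) treated 18 h at 37 °C with PROTACs over 11 threefold concentrations; lytic HiBiT luminescence normalised to DMSO (0%) and cell-free (100%) controls. Relative DC50 = 4-parameter fit inflection; absolute DC50 = 50% degradation interpolation; Dmax = maximum observed degradation.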

T1 sequence (P10275 whole entry T878A): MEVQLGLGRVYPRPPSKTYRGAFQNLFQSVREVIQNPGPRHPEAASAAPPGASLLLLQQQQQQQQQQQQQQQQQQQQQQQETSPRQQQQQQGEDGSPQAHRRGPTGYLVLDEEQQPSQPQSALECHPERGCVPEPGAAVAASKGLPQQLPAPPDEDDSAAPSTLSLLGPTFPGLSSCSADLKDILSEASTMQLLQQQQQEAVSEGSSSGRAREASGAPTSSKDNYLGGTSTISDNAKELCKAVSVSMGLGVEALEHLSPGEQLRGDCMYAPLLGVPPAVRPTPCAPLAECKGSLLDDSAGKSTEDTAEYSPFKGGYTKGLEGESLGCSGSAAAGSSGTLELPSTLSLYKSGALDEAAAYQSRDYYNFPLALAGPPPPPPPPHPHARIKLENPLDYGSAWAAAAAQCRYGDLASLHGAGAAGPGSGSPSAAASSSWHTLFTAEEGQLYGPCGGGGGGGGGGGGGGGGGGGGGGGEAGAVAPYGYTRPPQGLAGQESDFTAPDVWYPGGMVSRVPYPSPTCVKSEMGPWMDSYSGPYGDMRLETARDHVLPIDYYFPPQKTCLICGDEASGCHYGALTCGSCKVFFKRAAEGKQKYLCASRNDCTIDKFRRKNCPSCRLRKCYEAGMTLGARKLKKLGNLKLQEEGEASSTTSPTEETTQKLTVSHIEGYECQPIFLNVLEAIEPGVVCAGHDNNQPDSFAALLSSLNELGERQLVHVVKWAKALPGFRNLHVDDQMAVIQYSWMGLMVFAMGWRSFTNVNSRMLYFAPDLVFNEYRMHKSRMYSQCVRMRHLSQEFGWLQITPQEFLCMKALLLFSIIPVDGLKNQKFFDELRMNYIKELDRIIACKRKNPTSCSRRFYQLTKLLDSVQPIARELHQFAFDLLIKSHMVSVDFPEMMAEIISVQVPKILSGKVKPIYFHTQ
T1 sequence (Q96SW2 whole entry partner): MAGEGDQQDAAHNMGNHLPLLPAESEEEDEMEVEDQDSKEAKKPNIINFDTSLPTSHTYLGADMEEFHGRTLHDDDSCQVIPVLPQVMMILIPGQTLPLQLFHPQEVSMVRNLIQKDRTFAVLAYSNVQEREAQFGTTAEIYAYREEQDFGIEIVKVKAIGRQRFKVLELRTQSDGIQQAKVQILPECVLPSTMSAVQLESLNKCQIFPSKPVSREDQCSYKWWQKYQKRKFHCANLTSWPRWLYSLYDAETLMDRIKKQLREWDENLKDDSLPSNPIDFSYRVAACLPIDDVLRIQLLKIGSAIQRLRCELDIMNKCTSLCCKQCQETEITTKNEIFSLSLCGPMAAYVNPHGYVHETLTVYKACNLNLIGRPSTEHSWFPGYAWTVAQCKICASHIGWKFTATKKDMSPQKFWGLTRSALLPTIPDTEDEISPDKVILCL
T1 sequence (Q16531 whole entry partner): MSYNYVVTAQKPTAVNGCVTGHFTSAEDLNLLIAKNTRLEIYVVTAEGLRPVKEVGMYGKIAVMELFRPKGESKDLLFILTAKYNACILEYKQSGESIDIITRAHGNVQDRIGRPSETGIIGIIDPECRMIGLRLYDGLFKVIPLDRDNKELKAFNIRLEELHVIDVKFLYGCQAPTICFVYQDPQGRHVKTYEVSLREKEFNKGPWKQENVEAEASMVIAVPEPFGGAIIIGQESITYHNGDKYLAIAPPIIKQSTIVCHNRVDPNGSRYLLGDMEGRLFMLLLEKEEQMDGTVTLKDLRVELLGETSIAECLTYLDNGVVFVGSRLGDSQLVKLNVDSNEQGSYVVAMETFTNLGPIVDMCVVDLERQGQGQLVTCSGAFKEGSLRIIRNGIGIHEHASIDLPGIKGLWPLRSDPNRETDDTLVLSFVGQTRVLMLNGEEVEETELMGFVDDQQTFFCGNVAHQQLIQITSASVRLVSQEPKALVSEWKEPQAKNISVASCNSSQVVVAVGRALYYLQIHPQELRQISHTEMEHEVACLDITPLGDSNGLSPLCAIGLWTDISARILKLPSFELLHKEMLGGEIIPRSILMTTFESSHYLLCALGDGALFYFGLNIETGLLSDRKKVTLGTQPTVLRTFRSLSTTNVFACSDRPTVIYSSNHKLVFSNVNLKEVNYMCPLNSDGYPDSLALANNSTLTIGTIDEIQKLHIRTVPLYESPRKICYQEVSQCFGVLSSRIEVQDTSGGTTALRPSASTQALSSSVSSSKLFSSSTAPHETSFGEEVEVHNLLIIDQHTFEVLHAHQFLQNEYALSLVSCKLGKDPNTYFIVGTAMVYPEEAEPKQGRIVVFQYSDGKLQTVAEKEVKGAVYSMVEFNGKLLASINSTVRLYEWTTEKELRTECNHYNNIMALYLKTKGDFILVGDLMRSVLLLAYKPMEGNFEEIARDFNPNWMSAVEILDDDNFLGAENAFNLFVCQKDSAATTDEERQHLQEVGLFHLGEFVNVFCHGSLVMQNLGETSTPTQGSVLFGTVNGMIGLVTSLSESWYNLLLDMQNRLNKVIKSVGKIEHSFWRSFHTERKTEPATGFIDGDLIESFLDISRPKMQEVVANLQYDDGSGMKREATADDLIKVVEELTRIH

In the case of `N#Cc1ccc(O[C@H]2CC[C@H](NC(=O)c3cnc(N4CCC(CN5CCC(n6ccc7c(N8CCC(=O)NC8=O)ncnc76)CC5)CC4)cn3)CC2)cc1Cl` [EAR196, N-((1r,4r)-4-(3-Chloro-4-cyanophenoxy)cyclohexyl)-5-(4-((4-(4-(2,4-dioxotetrahydropyrimidin-1(2H)-yl)-7H-pyrrolo[2,3-d]pyrimidin-7-yl)piperidin-1-yl)methyl)piperidin-1-yl)pyrazine-2-carboxamide hydrochloride], the Dmax was at least 50%. On to `N#Cc1ccc(O[C@H]2CC[C@H](NC(=O)c3cnc(N4CCC(CN5CCC(n6ccc7c(N8CCC(=O)NC8=O)cncc76)CC5)CC4)nc3)CC2)cc1C(F)(F)F` [AR17, N-((1r,4r)-4-(4-Cyano-3-(trifluoromethyl)phenoxy)cyclohexyl)-2-(4-((4-(4-(2,4-dioxotetrahydropyrimidin-1(2H)-yl)-1H-pyrrolo[2,3-c]pyridin-1-yl)piperidin-1-yl)methyl)piperidin-1-yl)pyrimidine-5-carboxamide], for which the Dmax was at least 50%. As to `CC1CC(CN2CCC(n3ncc4c(N5CCC(=O)NC5=O)cccc43)CC2)CN1c1ccc(C(=O)N[C@H]2CC[C@H](Oc3ccc(C#N)c(Cl)c3)CC2)nn1` (some centres unmarked) [EAR232, N-((1r,4r)-4-(3-chloro-4-cyanophenoxy)cyclohexyl)-6-(4-((4-(4-(2,4-dioxotetrahydropyrimidin-1(2H)-yl)-1H-indazol-1-yl)piperidin-1-yl)methyl)-2-methylpyrrolidin-1-yl)pyridazine-3-carboxamide], the Dmax is at least 50%. With `N#Cc1ccc(O[C@H]2CC[C@H](NC(=O)c3ccc(N4CCC(CN5CC[C@H](n6ccc7c(N8CCC(=O)NC8=O)cccc76)[C@H](F)C5)CC4)nn3)CC2)cc1Cl` [EAR156, N-((1r,4r)-4-(3-Chloro-4-cyanophenoxy)cyclohexyl)-6-(4-(((3R,4S)-4-(4-(2,4-dioxotetrahydropyrimidin-1(2H)-yl)-1H-indol-1-yl)-3-fluoropiperidin-1-yl)methyl)piperidin-1-yl)pyridazine-3-carboxamide, hydrochloride], the Dmax is at least 50%. As to `CC(C)n1ccc2c(N3CCC(=O)NC3=O)cc(C(=O)N(C)CC3CCN(CCCCOc4ccc(C(=O)N[C@H]5CC[C@H](Oc6ccc(C#N)c(Cl)c6)CC5)nc4)CC3)cc21` [EAR65, N-((1-(4-((6-(((1r,4r)-4-(3-Chloro-4-cyanophenoxy)cyclohexyl)carbamoyl)pyridin-3-yl)oxy)butyl)piperidin-4-yl)methyl)-4-(2,4-dioxotetrahydropyrimidin-1(2H)-yl)-1-isopropyl-N-methyl-1H-indole-6-carboxamide], the Dmax was at least 50%.

Consider `N#Cc1ccc(O[C@H]2CC[C@H](NC(=O)c3cccc(C4CCN(C(=O)CN5CCC(n6ccc7c(N8CCC(=O)NC8=O)cccc76)CC5)CC4)c3)CC2)cc1Cl` [AR3, N-((1r,4r)-4-(3-Chloro-4-cyanophenoxy)cyclohexyl)-3-(1-(2-(4-(4-(2,4-dioxotetrahydropyrimidin-1(2H)-yl)-1H-indol-1-yl)piperidin-1-yl)acetyl)piperidin-4-yl)benzamide], for which the Dmax is at least 50%. As to `CC1(CN2CCC(n3ncc4c(N5CCC(=O)NC5=O)cccc43)CC2)CCN(c2ccc(C(=O)N[C@H]3CC[C@H](Oc4ccc(C#N)c(Cl)c4)CC3)nn2)C1` (some centres unmarked) [EAR241, N-((1r,4r)-4-(3-chloro-4-cyanophenoxy)cyclohexyl)-6-(3-((4-(4-(2,4-dioxotetrahydropyrimidin-1(2H)-yl)-1H-indazol-1-yl)piperidin-1-yl)methyl)-3-methylpyrrolidin-1-yl)pyridazine-3-carboxamide], the Dmax is at least 50%.

Take `N#Cc1ccc(O[C@H]2CC[C@H](NC(=O)c3ccc(N4CCC(CN5CC[C@H](n6ccc7c(N8CCC(=O)NC8=O)cccc76)[C@@H](F)C5)CC4)nn3)CC2)cc1Cl` [EAR145, N-((1r,4r)-4-(3-Chloro-4-cyanophenoxy)cyclohexyl)-6-(4-(((3S,4S)-4-(4-(2,4-dioxotetrahydropyrimidin-1(2H)-yl)-1H-indol-1-yl)-3-fluoropiperidin-1-yl)methyl)piperidin-1-yl)pyridazine-3-carboxamide, hydrochloride]: the Dmax is at least 50%. As for `N#Cc1ccc(O[C@H]2CC[C@H](NC(=O)c3ccc(N4CCC[C@@H](CN5CCC(n6ncc7c(N8CCC(=O)NC8=O)cccc76)CC5)C4)nn3)CC2)cc1Cl` (single isomer, unassigned) [EAR137], the Dmax was at least 50%.

Consider `CC1(C)CC(CN2CCC(n3ncc4c(N5CCC(=O)NC5=O)cccc43)CC2)CN(c2ccc(C(=O)N[C@H]3CC[C@H](Oc4ccc(C#N)c(Cl)c4)CC3)nn2)C1` (some centres unmarked) [EAR223, N-((1r,4r)-4-(3-chloro-4-cyanophenoxy)cyclohexyl)-6-(5-((4-(4-(2,4-dioxotetrahydropyrimidin-1(2H)-yl)-1H-indazol-1-yl)piperidin-1-yl)methyl)-3,3-dimethylpiperidin-1-yl)pyridazine-3-carboxamide], for which the Dmax was at least 50%. `CN(c1ccc(C#N)c(Cl)c1)[C@H]1CC[C@H](NC(=O)c2ccc(N3CCC(CN4CCC(n5ccc6c(N7CCC(=O)NC7=O)cccc65)CC4)CC3)nn2)CC1` [EAR157, N-((1r,4r)-4-((3-Chloro-4-cyanophenyl)(methyl)amino)cyclohexyl)-6-(4-((4-(4-(2,4-dioxotetrahydropyrimidin-1(2H)-yl)-1H-indol-1-yl)piperidin-1-yl)methyl)piperidin-1-yl)pyridazine-3-carboxamide]: the Dmax was at least 50%.

For the compound `N#Cc1ccc(O[C@H]2CC[C@H](NC(=O)c3ccc(N4CCO[C@H](CN5CCC(n6ccc7c(N8CCC(=O)NC8=O)cccc76)CC5)C4)nn3)CC2)cc1Cl` [EAR123, N-((1r,4R)-4-(3-Chloro-4-cyanophenoxy)cyclohexyl)-6-((R)-2-((4-(4-(2,4-dioxotetrahydropyrimidin-1(2H)-yl)-1H-indol-1-yl)piperidin-1-yl)methyl)morpholino)pyridazine-3-carboxamide], the Dmax is at least 50%. `CC1(C)C(=O)N(c2ccc(C#N)c(C(F)(F)F)c2)C(=S)N1c1ccc(N2CCC(CN3CCC(n4ccc5c(N6CCC(=O)NC6=O)cncc54)CC3)CC2)cc1` [EAR101, 4-(3-(4-(4-((4-(4-(2,4-Dioxotetrahydropyrimidin-1(2H)-yl)-1H-pyrrolo[2,3-c]pyridin-1-yl)piperidin-1-yl)methyl)piperidin-1-yl)phenyl)-4,4-dimethyl-5-oxo-2-thioxoimidazolidin-1-yl)-2-(trifluoromethyl)benzonitrile]: the Dmax is at least 50%. As to `C[C@H]1CN(c2ccc(C(=O)N[C@H]3CC[C@H](Oc4ccc(C#N)c(Cl)c4)CC3)nn2)CC[C@H]1CN1CCC(n2ncc3c(N4CCC(=O)NC4=O)cccc32)CC1` [EAR227, N-((1r,4R)-4-(3-chloro-4-cyanophenoxy)cyclohexyl)-6-((3R,4R)-4-((4-(4-(2,4-dioxotetrahydropyrimidin-1(2H)-yl)-1H-indazol-1-yl)piperidin-1-yl)methyl)-3-methylpiperidin-1-yl)pyridazine-3-carboxamide], the Dmax was at least 50%.

Turning to `N#Cc1ccc(O[C@H]2CC[C@H](NC(=O)c3ccc(N4CCC(CN5CCC(n6ccc7c(N8CCC(=O)NC8=O)cccc76)CC5)CC4)nc3)CC2)cc1C(F)(F)F` [AR12, N-((1r,4r)-4-(4-Cyano-3-(trifluoromethyl)phenoxy)cyclohexyl)-6-(4-((4-(4-(2,4-dioxotetrahydropyrimidin-1(2H)-yl)-1H-indol-1-yl)piperidin-1-yl)methyl)piperidin-1-yl)nicotinamide], the Dmax is at least 50%. In the case of `N#Cc1ccc(O[C@H]2CC[C@H](NC(=O)c3ccc(N4CCO[C@@H](CN5CCC(n6ccc7c(N8CCC(=O)NC8=O)cccc76)CC5)C4)nn3)CC2)cc1Cl` [EAR125, N-((1r,4S)-4-(3-Chloro-4-cyanophenoxy)cyclohexyl)-6-((S)-2-((4-(4-(2,4-dioxotetrahydropyrimidin-1(2H)-yl)-1H-indol-1-yl)piperidin-1-yl)methyl)morpholino)pyridazine-3-carboxamide], the Dmax was at least 50%. Regarding `CC1(CN2CCC(n3ncc4c(N5CCC(=O)NC5=O)cccc43)CC2)CCN(c2ccc(C(=O)N[C@H]3CC[C@H](Oc4ccc(C#N)c(Cl)c4)CC3)nn2)CC1` [EAR242, N-((1r,4r)-4-(3-chloro-4-cyanophenoxy)cyclohexyl)-6-(4-((4-(4-(2,4-dioxotetrahydropyrimidin-1(2H)-yl)-1H-indazol-1-yl)piperidin-1-yl)methyl)-4-methylpiperidin-1-yl)pyridazine-3-carboxamide], the Dmax was at least 50%. Take `N#Cc1ccc(O[C@H]2CC[C@H](NC(=O)c3cnc(N4CCC(C(=O)N5CCC(n6ccc7c(N8CCC(=O)NC8=O)cccc76)CC5)CC4)nc3)CC2)cc1C(F)(F)F` [EAR68, N-((1r,4r)-4-(4-Cyano-3-(trifluoromethyl)phenoxy)cyclohexyl)-2-(4-(4-(4-(2,4-dioxotetrahydropyrimidin-1(2H)-yl)-1H-indol-1-yl)piperidine-1-carbonyl)piperidin-1-yl)pyrimidine-5-carboxamide]: the Dmax is at least 50%. To `N#Cc1ccc(O[C@H]2CC[C@H](NC(=O)c3ccc(N4CCN(C[C@H]5CC[C@H](n6ccc7c(N8CCC(=O)NC8=O)cccc76)CC5)CC4)nn3)CC2)cc1Cl` [AR215, N-((1r,4r)-4-(3-Chloro-4-cyanophenoxy)cyclohexyl)-6-(4-(((1r,4r)-4-(4-(2,4-dioxotetrahydropyrimidin-1(2H)-yl)-1H-indol-1-yl)cyclohexyl)methyl)piperazin-1-yl)pyridazine-3-carboxamide hydrochloride] belongs at least 50%; to `N#Cc1ccc(O[C@H]2CC[C@H](NC(=O)c3ccc(N4CCCC(CN5CCC(n6ncc7c(N8CCC(=O)NC8=O)cccc76)CC5)C4)nn3)CC2)cc1Cl` (some centres unmarked) [EAR36, N-((1r,4r)-4-(3-Chloro-4-cyanophenoxy)cyclohexyl)-6-(3-((4-(4-(2,4-dioxotetrahydropyrimidin-1(2H)-yl)-1H-indazol-1-yl)piperidin-1-yl)methyl)piperidin-1-yl)pyridazine-3-carboxamide], at least 50%.
